Data set [1] in a line: Physicochemical properties: stability.
The nature of data set [2]: Physicochemical properties: solubility. The following applies: organic solvents.
In data set [3] the target is N-acetylglucosamine-1-phosphate uridyltransferase (GlmU) (Escherichia coli, UniProt P0ACC7). The experiment in a line: GlmU inhibition, biochemical test (384-plate format, DTNB, absorption at 405 nm). Details: species or system bacterial. To be noted: 60 minutes of incubation at 30° C.; read-out: inhibition constant, IC50, inhibitory effect on the enzyme GlmU. On the procedure:
The inhibition of the GlmU can be determined in a biochemical test using the following method:
The assay was carried out in a 384-plate format. The reaction volume was 40 μl per test. The reaction mixture contained 10 μl of test substance and 15 μl of substrate solution consisting of acetylCoA and D-glucosamine-1-phosphate. The enzyme reaction was started by adding 15 μl of GlmU enzyme solution. After 60 minutes of incubation at 30° C., the reaction was stopped by adding 10 μl of developer reagent (DTNB dissolved in guanidine). The plates were then centrifuged (1 min, 1000 rpm) and stored for a further 45 minutes at room temperature before the absorption was read at 405 nm in a photometer. In order to be able to calculate the inhibitory activity of the test compounds, positive controls (signal with GlmU) and negative controls (signal without GlmU) were included on each plate. In order to exclude falsely positive samples, which could be caused by nonspecific substance effects (e.g. color), blank plates, which contained the substances but no GlmU, were included in parallel with the test plates. After correction for the blanks, the inhibitory activities of the substances were calculated in accordance with the following formula: Inhibition(%)=100×[1−(OD405 nm substance/OD405 nm positive control)]

Results on one compound are retold here after patent publication US7148254B2, “2-Phenylbenzofuran derivatives, a process for preparing them, and their use” (Sanofi-Aventis Deutschland GmbH, priority 2003, dated 2006).

The IC50 is the concentration needed to halve the response being measured.

Chain of N-acetylglucosamine-1-phosphate uridyltransferase (GlmU) (P0ACC7 whole entry): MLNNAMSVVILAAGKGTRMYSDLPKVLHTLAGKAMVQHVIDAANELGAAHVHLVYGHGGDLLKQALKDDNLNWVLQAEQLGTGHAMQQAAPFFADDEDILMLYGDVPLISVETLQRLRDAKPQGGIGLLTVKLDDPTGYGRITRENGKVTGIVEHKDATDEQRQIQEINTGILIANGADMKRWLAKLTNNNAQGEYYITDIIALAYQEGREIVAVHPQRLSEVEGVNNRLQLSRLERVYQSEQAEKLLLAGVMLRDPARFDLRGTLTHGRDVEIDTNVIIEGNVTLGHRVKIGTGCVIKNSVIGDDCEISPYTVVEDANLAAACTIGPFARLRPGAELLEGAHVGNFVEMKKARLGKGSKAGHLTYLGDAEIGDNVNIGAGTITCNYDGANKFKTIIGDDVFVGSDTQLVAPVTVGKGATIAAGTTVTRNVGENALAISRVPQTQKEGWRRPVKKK

`Cc1c(O)c(O)c(O)c(C=O)c1-c1cc2c(C=O)c(C)c(O)c(O)c2o1` [(II)]: the stability result is “Stable in neutral and mildly acid medium” in data set [1] (neutral and mildly acid medium); “unstable in strongly acidic and alkaline solutions and under the influence of oxygen” in data set [1] (strongly acidic and alkaline solutions, under the influence of oxygen). Moreover, the solubility entry in data set [2] is “soluble in medium-polar and polar organic solvents”. Besides, the IC50 in data set [3] stood at 1000 nM.
